SMILES strings stand for the structures.

A short description of data set [1]: Hygroscopicity (statement, no method described). The format is physicochemical. To be noted: in words.
A short description of data set [2]: Solubility in physiologically acceptable solvents (statement, no method described). The following applies: in words.
Data set [3] in a line: In-vitro intrinsic dissolution of 200 mg pellets of API without excipients. The following applies: for % release of Compound (I) from the respective Salts: Table 8, 200 mg pellet, 0.01N HCl, 37° C., paddle 75 rpm. The format is physicochemical. As for the experimental part:
A tableting mixture (200 mg) comprising solely salts of (((1-(6-amino-9H-purin-9-yl)propan-2-yloxy)methyl) (phenoxy) phosphoryloxy) methyl pivalate-prepared according to any one of the examples 1 to 10 (i.e. with no excipients) was prepared and compressed to a pellet using an automatic KBR press operating at a compression pressure of 2 tones for 2 minutes.
Similarly a tableting mixture (200 mg) comprising a solely TAF (i.e. with no excipients) was prepared and compressed to a pellet using an automatic KBR press operating at a compression pressure of 2 tones for 2 minutes.
A tableting mixture (200 mg) comprising solely TDF (i.e. with no excipients) was prepared and compressed to a pellet using an automatic KBR press operating at a compression pressure of 2 tones for 2 minutes.
In-vitro dissolution studies were performed on the 200 mg pellet in a LAB INDIA DISSO 2000.
The pellet was fixed in a PFTE holder, such that only the pellet surface came into contact with the dissolution medium. The PFTE loaded holder was placed in the dissolution vessel containing 900 ml of 0.1M of HCl having […] at 37±0.5° C. Two pellets were measured for each run of the design of the experiments. Stirring was performed with a paddle rotating at 75 rpm. […]
Dissolution Media: 0.01N HCl
Bath temperature: 37.5° C.
Sample Preparation: Pellets were prepared by pressing sample with 2 ton pressure for 2 min
Note: Aliquots were analysed on HPLC.
The concentration of (((1-(6-amino-9H-purin-9-yl)propan-2-yloxy)methyl) (phenoxy) phosphoryloxy) methyl pivalate was quantified by HPLC UV method at a maximum wavelength of 300 nm under the conditions as specified below:
Standard Preparation: 25 mg standard dissolved to 25 ml with dissolution medium. 5 ml of this solution diluted to 25 ml with dissolution medium. Further 5 ml of this solution was diluted to 10 ml with diluent.
Sample Preparation: 200 mg of Sample pellets were prepared and subjected to dissolution. 10 ml of Aliquot was removed from the dissolution basket at predetermined time intervals. 5 ml of these aliquot was diluted to 10 ml with Diluent.
200 mg of input API of fumarate salt of (((1-(6-amino-9H-purin-9-yl)propan-2-yloxy)methyl) (phenoxy) phosphoryloxy) methyl pivalate used for pellet preparation.
The percentage of (((1-(6-amino-9H-purin-9-yl)propan-2-yloxy)methyl) (phenoxy) phosphoryloxy) methyl pivalate (TD), Tenofovir Alafenamide (TAF) and Tenofovir Disoproxil (TDF) released from the respective fumarate salt tablet were plotted against time as shown in FIG. 19. The intrinsic dissolution rate was derived from the slope of this curve.
To measure the intrinsic dissolution of the Salts of (((1-(6-amino-9H-purin-9-yl)propan-2-yloxy)methyl) (phenoxy) phosphoryloxy) methyl pivalate, samples were measured to compare the influence of the different parameter settings. At appropriate time intervals, an automated sample collector removes aliquots from the dissolution medium for analysis. The time interval for sampling can vary, for example, from 5 to 120 minutes, depending on the properties of the drug and dissolution medium used. Suitable dissolution equipment for these operations includes LAB INDIA DISSO 2000. Bath temperature—37.5° C.
200 mg of input API of each fumarate, oxalate, phosphate, citrate, succinate and tartrate Salts of (((1-(6-amino-9H-purin-9-yl)propan-2-yloxy)methyl) (phenoxy) phosphoryloxy) methyl pivalate used for pellet preparation.
The percentage of (((1-(6-amino-9H-purin-9-yl)propan-2-yloxy)methyl) (phenoxy) phosphoryloxy) methyl pivalate released from the respective salts tablet were plotted against time as shown in FIG. 20. The intrinsic dissolution rate was derived from the slope of this curve.

Take `CC(Cn1cnc2c(N)ncnc21)OCP(=O)(OCOC(=O)C(C)(C)C)Oc1ccccc1.O=P(O)(O)O` (stereo not drawn) [Phosphate, (((1-(6-amino-9H-purin-9-yl)propan-2-yloxy)methyl) (phenoxy)phosphoryloxy) methyl pivalate phosphoric acid salt]: the hygroscopicity result in data set [1] was “not hygroscopic”. The “solubility in physiologically acceptable solvents” value in data set [2] is listed as “readily soluble”. For the same molecule, the “% release of Compound (I) from the respective Salts” value (“% release of Compound (I)” below) stood at 19% in data set [3] (5 min); 59% in data set [3] (15 min); 103% in data set [3] (30 min); 104% in data set [3] (45 min); 105% in data set [3] (60 min); 105% in data set [3] (90 min). For the same molecule, the “% release of Compound (I)” value in data set [3] (120 min) is given as 106%; in data set [3] (150 min) it was 105%; in data set [3] (180 min) it was 104%; in data set [3] (210 min) it was 104%; in data set [3] (240 min) it was 105%. In data set [3] (in words, from the data of Table 8), the “dissolution profile compared to other salts” value is “fastest dissolution profile”.
As to `CC(Cn1cnc2c(N)ncnc21)OCP(=O)(OCOC(=O)C(C)(C)C)Oc1ccccc1.O=C(O)CCC(=O)O` (stereo not drawn) [Succinate, (((1-(6-amino-9H-purin-9-yl)propan-2-yloxy)methyl) (phenoxy)phosphoryloxy) methyl pivalate succinic acid salt], the hygroscopicity entry in data set [1] is listed as “not hygroscopic”. The “solubility in physiologically acceptable solvents” value in data set [2] was “readily soluble”. For the same molecule, the “% release of Compound (I)” value in data set [3] (5 min) turned out to be 3%; in data set [3] (15 min), 3%; in data set [3] (30 min), 16%; in data set [3] (45 min) it was 23%; in data set [3] (60 min), 30%; in data set [3] (90 min) it was 45%. In addition, the “% release of Compound (I)” value was found to be 59% in data set [3] (120 min); 74% in data set [3] (150 min); 85% in data set [3] (180 min); 90% in data set [3] (210 min); 92% in data set [3] (240 min).
